Measured values taken from PubChem BioAssay AID179 (DTP/NCI, 2004).
Calls of active or inactive are those of the source.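 How the source made its calls: active means compounds giving half or more protection of infected cells from virus-caused growth loss, again on retest; inactive means the rest.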 Where a SMILES comes first, the peptide text is derived from it. [ ]: non-standard residue; d: D form. The star is where a group is joined. ξ: configuration not given here. ξW = NC(Cc1c[nH]c2ccccc12)C(=O)O; X18 = O=C(O)[C@H]1CCC[C@H]1N*; ξF = NC(Cc1ccccc1)C(=O)O; Boc = CC(C)(C)OC(=O)*; ξK = NCCCCC(N)C(=O)O; ξT = CC(O)C(N)C(=O)O; tBu = CC(C)(C)*

Tested on: CEM cells HIV-1 protection, formazan growth assay
Test: NCI AIDS Antiviral Assay
Conditions: for IC50: measured here: growth of uninfected CEM cells
Procedure, shortened: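 Protection of CEM cells against HIV-1 measured as cell growth via soluble formazan read-out, with five concentrations tested on both infected and uninfected cells; failure to protect may reflect toxicity.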

Row | SMILES | EC50 | IC50 | outcome
1 | C/C(=C\c1ccc([N+](=O)[O-])cc1)C(=O)O | > 174 µM | > 174 µM | –
2 | CCOC(=O)c1[nH]n(-c2ccccc2)c(=O)c1C=NC(=S)c1cccnc1 | > 200 µM | 89.1 µM | –
3 | COc1ccc(NC(=O)C(C#N)=C(SC)SC)cc1 | > 200 µM | 7.94 µM | –
4 | CN(C)c1nc2nonc2nc1Nc1ccccc1 | > 200 µM | > 200 µM | –
5 | S=C(/N=c1/sc(Nc2ccccc2)nc2sc3c(c12)CCCC3)Nc1ccccc1 | > 126 µM | > 126 µM | –
6 | COc1ccc(N2C(=O)C(=O)C3(CCCCC3)C2=O)c2ccccc12 | > 200 µM | > 200 µM | –
7 | CC1=C2c3ccccc3N(S(=O)(=O)c3ccccc3)[C@H]2[C@H](C(=O)N2C3CC4CC[C@@]3(CS2(=O)=O)C4(C)C)CC1 (some centres not stated) | 5.25 µM | 18.6 µM | –
8 | CCOC(=O)C(=Cc1ccco1)C(=O)OCC | > 151 µM | 85.1 µM | –
9 | CC1CCCC2=C1C(=O)N(CSCN1C(=O)C3=C(C1=O)C(C)CCC3)C2=O (configuration not stated) | > 200 µM | 141 µM | –
10 | CN(C)CCn1c(=O)c2ccc(NCCNCCO)c3c(=O)c4ccccc4n(c1=O)c23 | > 0.2 µM | 0.0112 µM | –
11 | CCn1cnc2c(NC(C)=O)ncnc21 | > 200 µM | > 200 µM | –
12 | O=C(NC1CCCCC1)/C(=C\c1ccc(/C=C(/NC(=O)c2ccccc2)C(=O)NC2CCCCC2)cc1)NC(=O)c1ccccc1 | > 200 µM | 120 µM | –
13 | CC(C)(C)[Si](C)(C)OCC1=C(CC#N)C(O[Si](C)(C)C(C)(C)C)C(n2ccc(=O)[nH]c2=O)O1 (configuration not stated) | > 200 µM | 9.33 µM | –
14 | C=C1C(OC(=O)C(O)C(c2ccccc2)N(C)C)C[C@H](OC(C)=O)[C@]2(C)C1C(OC(C)=O)[C@@H]1CC(OC(C)=O)C(C)=C([C@@H](OC(C)=O)C2OC(C)=O)C1(C)C (some centres not stated) | – | – | inactive
15 | O=C(CCNC12CC3CC(CC(C3)C1)C2)c1ccccc1 | – | – | inactive
16 | Cc1sc2c(c1C)C(=O)c1cccn1-2 | > 200 µM | 170 µM | –
17 | CCCOC(=O)C(C)(C)C(OP(OCCC)OCCC)=C(C)C | > 200 µM | > 200 µM | –
18 | O=C1OC(C(O)CO)C(O)=C1Nc1ccc(S(=O)(=O)c2ncc(NC3=C(O)C(C(O)CO)OC3=O)s2)cc1 (configuration not stated) | > 200 µM | 21.9 µM | –
19 | CCOC(=O)/C(Br)=C/SCCC(=O)O | > 891 µM | 174 µM | –
20 | CC(O)C(=O)[O][Pb]([CH3])([CH3])[CH3] (configuration not stated) | > 200 µM | > 200 µM | –
21 | Cn1c2c(c3ccccc31)CCN(CCCN1CCN(c3ccccc3)CC1)C2=O | > 55 µM | 44.7 µM | –
22 | CNN1C(=O)c2c(C)c(C)c(C#N)c(N)c2C1=O | > 200 µM | > 200 µM | –

Row | SMILES | EC50 | IC50 | outcome
23 | O=C(/C=C/c1ccsc1)c1cccs1 | > 200 µM | 3.55 µM | –
24 | COCCCCCCCCCCC(=O)O | > 200 µM | > 200 µM | –
25 | O=C1NC(=O)[C@@]2(CCOc3ccc(F)cc32)N1 | > 741 µM | 661 µM | –
26 | O=[N+]([O-])c1cnc(N(CCO)CCO)s1 | > 200 µM | > 200 µM | –
27 | CCOCC(CN(CC)CC)N(CC)CC(=O)Nc1c(C)cccc1C (configuration not stated) | > 200 µM | 4.17 µM | –
28 | O=P1(Oc2ccccc2)C(c2ccccc2)C(c2ccccc2)=NN1c1ccccc1 (configuration not stated) | > 12.3 µM | > 12.3 µM | –
29 | CC1(C)CCCCCCC2OC2CCCCCC(C)(C)C1=O (configuration not stated) | > 200 µM | 38 µM | –
30 | CN(C)CCCc1cccc2[nH]c3c(c12)CN(C)CC3 | > 200 µM | 126 µM | –
31 | COC(=O)C(Cc1ccccc1)NC(=O)C(CCC(=O)OCc1ccccc1)NC(=O)OC(C)(C)C (configuration not stated) | > 200 µM | 28.8 µM | –
32 | CC(CCC(=O)O)[C@H]1CCC2[C@H]3C(CC(=O)[C@@]21C)[C@@]1(C)CCC(O)C[C@H]1C[C@@H]3O (some centres not stated) | > 200 µM | > 200 µM | –
33 | CCCC(=O)c1ccc2c(ccc(=O)n2C)c1 | > 112 µM | 102 µM | –
34 | NC(=O)N/N=C(/c1nc2ccc([N+](=O)[O-])cc2[nH]c1=O)C(O)c1ccco1 (configuration not stated) | > 182 µM | > 182 µM | –
35 | CCOC(=O)Nc1[nH]c(C)c(Cc2ccccc2)c1C#N | > 200 µM | 12.3 µM | –
36 | CC(OC(C)(C)C)C(NC(=O)C(CCCCNC(=O)OC(C)(C)C)NC(=O)C(Cc1c[nH]c2ccccc12)NC(=O)C(N)Cc1ccccc1)C(=O)NC(Cc1ccccc1)C(=O)N[C@@H]1CCC[C@@H]1C(=O)O (some centres not stated) (H-[ξF][ξW][ξK](Boc)[ξT](tBu)[ξF]-X18) | – | – | inactive
37 | CC(=O)CCC(NC(C)=O)(C(=O)O)C(=O)O | > 200 µM | > 200 µM | –
38 | COc1c2occc2c(Cl)c2ccc(=O)oc12 | > 70.8 µM | 43.7 µM | –
39 | N#C/C(=C\NC(=S)Nc1ccc(S(=O)(=O)Nc2nccs2)cc1)C(=O)c1ccc2ccccc2c1 | > 200 µM | 36.3 µM | –
40 | Cc1ccc2nc(NS(=O)(=O)c3cc(C)c(Cl)cc3S)[nH]c2c1 | > 200 µM | > 200 µM | –
41 | N#CCCN(C(=O)Nc1cccc(C(F)(F)F)c1)C1CCCCC1 | > 200 µM | > 200 µM | –
42 | CC(C)N(C(=O)c1ccc([N+](=O)[O-])cc1)C(C)C | > 200 µM | > 200 µM | –
43 | O=C(O)c1c2c(c(C(=O)O)c3ccccc13)-c1ccccc1-2 | – | – | inactive
44 | COc1cc2cnc3c4ccccc4ccc3c2cc1OC | > 64.6 µM | > 64.6 µM | –

Row | SMILES | EC50 | IC50 | outcome
45 | C[C@H]1C2=CC(=O)CC[C@@](C)(O2)[C@H]2CC[C@]3(C)C(=O)CC[C@H]3[C@H]12 | > 832 µM | 417 µM | –
46 | C=C[C@@]1(O)CC[C@@H](C(C)(C)C)C[C@H]1CC(=C)Br | – | – | inactive
47 | CC12CCC(c3sc(N)c(C#N)c31)C2(C)C (configuration not stated) | > 191 µM | 35.5 µM | –
48 | Oc1cc(Br)cc2cc(Br)cnc12 | – | – | inactive
49 | CC(=O)/C(=C\C1=CCCO1)C(=O)Nc1ccccc1C | > 26.3 µM | > 26.3 µM | –
50 | CC(C)(C)OC(=O)NCCCCCCC(=O)Cc1ccccc1 | > 200 µM | 117 µM | –
51 | CC1(C)OC2OC(C(COS(=O)(=O)C(F)(F)F)N=[N+]=[N-])C(OC(=O)c3ccccc3)C2O1 (configuration not stated) | > 200 µM | > 200 µM | –
52 | O=P1(Cc2ccccc2)C(c2ccccc2)=C(O)C2CCCC21 (configuration not stated) | > 112 µM | > 112 µM | –
53 | c1ccc([C@H]2CN3CCSC3=N2)cc1 | > 200 µM | > 200 µM | –
54 | CSc1ncc(Br)c(Nc2c[nH]c(=O)[nH]c2=O)n1 | > 200 µM | > 200 µM | –
55 | O=C(O)C12CC3CC(C1)C2C=C3P(=O)(O)O (configuration not stated) | > 1020 µM | > 1020 µM | –
56 | CC1(C)N=C(N)N=C(N)N1c1ccc(CCCCc2ccc(S(=O)(=O)F)cc2Cl)c(Cl)c1 | > 107 µM | 1.41 µM | –
57 | CCCCCCCCCCCCCCCCSS(=O)(=O)c1ccc(C)cc1 | > 31.6 µM | > 31.6 µM | –
58 | CC(=O)Nc1cc2ccc(C)nc2c2nc(C)ccc12 | > 200 µM | > 200 µM | –
59 | CN(C)CCSC(=Nc1ccccc1)N1CCCCC1 | > 123 µM | 20.9 µM | –
60 | CC1(C)OC(CCC#N)CN1C(=O)OCc1ccccc1 (configuration not stated) | > 200 µM | 135 µM | –
61 | CN(CC#N)C1CCC[C@]1(O)C#C[Si](C)(C)c1ccccc1 (some centres not stated) | > 60.3 µM | 57.5 µM | –
62 | CC(=O)OCC1OC(n2c(=O)[nH]c(=O)c3sccc32)C(Br)C1OC(C)=O (configuration not stated) | > 200 µM | > 200 µM | –
63 | CCOc1ccc(NC(=O)CC2SC(=Nc3ccc(C)cc3)NC2=O)cc1 (configuration not stated) | > 67.6 µM | > 67.6 µM | –
64 | C[C@H]1S[C@H](c2c(F)cccc2F)n2c1nc1ccccc12 | > 200 µM | 33.9 µM | –
65 | O=C1COC(c2ccccc2)C(c2ccccc2)(c2ccccc2)O1 (configuration not stated) | > 15.8 µM | > 15.8 µM | –
66 | O=C(O)c1c(CC(Cc2ccccc2)C(=O)O)ccc2c1CCC2 (configuration not stated) | > 200 µM | > 200 µM | –

Row | SMILES | EC50 | IC50 | outcome
67 | NC(=O)CC(NC(=O)c1ccccc1SC(=O)CCCC[n+]1ccccc1)C(N)=O (configuration not stated) | 32.4 µM | > 200 µM | –
68 | O=C(NCCCCCCNC(=O)NCc1ccco1)NCc1ccco1 | > 14.5 µM | > 14.5 µM | –
69 | C[n+]1c2ccccc2cc2c(CNC(CCCN=C(N)N)C(=O)O)cccc21 (configuration not stated) | – | – | inactive
70 | O=[N+]([O-])c1ccc2cnn(CN3CCCCC3)c2c1 | > 200 µM | 89.1 µM | –
71 | CN(C)CC1CCc2ccccc2C1=O (configuration not stated) | – | – | inactive
72 | CC(=O)[C@H]1CC[C@@H]2[C@]1(C)CC=C1[C@]23C=C[C@]2(C[C@@H](O)CC[C@]12C)C(C(=O)O)C3C(=O)O (some centres not stated) | – | – | inactive
73 | CC(CN(C)C)Nc1c2ccccc2nc2cccc([N+](=O)[O-])c12 (configuration not stated) | > 2 µM | 0.977 µM | –
74 | CC1=CCC2(C#N)CCC1C2O (configuration not stated) | > 1510 µM | > 1510 µM | –
75 | C=CCn1c(N)c(N=O)c(=O)n(C)c1=O | > 200 µM | > 200 µM | –
76 | CC(C)CC(=O)CC(C)[C@]1(CCCOCc2ccccc2)C(=O)N2CCC3(C[C@@]24CCC[C@H]41)OCCO3 (some centres not stated) | > 200 µM | 35.5 µM | –
77 | CC(C)OC(=O)C(NC(=O)C(CC(=O)OCc1ccccc1)NC(=O)OCc1ccccc1)NC(=O)C1C(C)(C)CCC1(C)C (configuration not stated) | > 200 µM | 12.6 µM | –
78 | CC1c2c(cc(=O)n(C)c2O)C(=O)N1C (configuration not stated) | 288 µM | 457 µM | –
79 | N#Cc1ccccc1NC(=O)C(O)C(O)C(O)C(O)C=O (configuration not stated) | > 200 µM | > 200 µM | –
80 | NCC(=O)NC1(C(=O)O)CCCC1 (HELM PEPTIDE1{G.[O=C(O)C1(N[*:1])CCCC1]}$$$$V2.0) | > 200 µM | > 200 µM | –
81 | Cc1ccccc1C1SCc2nc3ccccc3n21 (configuration not stated) | – | – | inactive
82 | CC12CCCC(O)C1CCC1=CC3(CCC12)SCCS3 (configuration not stated) | > 12 µM | > 12 µM | –
83 | Cc1c2ccccc2nc(CSC#N)[n+]1[O-] | > 200 µM | 36.3 µM | –
84 | O=c1[nH]c(=O)n(C2CC(O)C(CO)O2)cc1C#Cc1c(F)c(F)c(F)c(F)c1F (configuration not stated) | > 603 µM | 110 µM | –
85 | Cn1cc(S(=O)(=O)NC(=O)Nc2ccc(Cl)cc2)c(=O)c2ccc(F)cc21 | – | – | inactive
86 | CCCCS(=O)(=O)c1ccc(O)c(C(=O)Nc2cccc(C(F)(F)F)c2)c1 | > 170 µM | 1.91 µM | –
87 | O=C(Cc1c(C(=O)Nc2ccccc2)sc(C(=O)Nc2ccccc2)c1CC(=O)Nc1ccccc1)Nc1ccccc1 | – | – | inactive
